Assay results taken from patent US20220324965A1, “COMBINATION THERAPY INVOLVING ANTIBODIES AGAINST CLAUDIN 18.2 AND IMMUNE CHECKPOINT INHIBITORS FOR TREATMENT OF CANCER” (Astellas Pharma Inc., priority 2019, published 2022).

What was measured:
Type in all cases: in vivo
[1] = test system: CLS-103 LVT-murinCLDN18.2 syngeneic tumors; experiment: Efficacy of IMAB362 plus anti-mPD-1 antibody in subcutaneous syngeneic gastric carcinoma model, endpoint day 14 (Example 1); conditions: female Crl:NMRI(Han) mice, n=12 per group, IMAB362 800 μg/mouse, anti-mPD-1 antibody 100 μg/mouse, intraperitoneal twice per week, vs Rituximab/isotype control group
Description: (§1) In order to determine whether a combination of an anti-CLDN18.2 antibody and an immune checkpoint inhibitor provides improved anti-tumor activity over the single agents alone in vivo, anti-tumor activity of IMAB362 in combination with an anti-mPD-1 antibody was examined in a subcutaneously transplanted syngeneic gastric carcinoma model in immunocompetent outbred Crl:NMRI(Han) mice using CLS-103 cells with lentiviral transduction of murine CLDN18.2 (CLS-103 LUT-murinCLDN18.2). Rituximab was used as an isotype control of IMAB362.
(§2) • Anti-CLDN18.2 antibody: IMAB362 (Astellas Pharma Inc.) • control antibody: Rituximab BS Intravenous Infusion [KHK] […]
(§3) Lentivirally transduced mouse CLDN18.2 expressing tumor cells (CLS-103 LVT-murinCLDN18.2) were engrafted subcutaneously into the right flank of female Crl:NMRI(Han) mice (10-week-old) at 2×10^6 cells/mouse. Mice were randomized based on tumor volume measured 2 days after engraftment into 4 groups (n=12 per group). […] Tumors were measured twice per week. […] Tumor volume was determined by length×width×width×0.5. Tumor growth inhibition (TGI[%]) of each group was calculated using the equation described below. […]

[2] = test system: CLS-103 LVT-murinCLDN18.2 syngeneic tumors; experiment: Long-term efficacy of IMAB362 plus anti-mPD-1 antibody in subcutaneous syngeneic gastric carcinoma model, up to day 28 (Example 2); conditions: IMAB362 800 μg/mouse, anti-mPD-1 antibody 100 μg/mouse, intraperitoneal twice per week
Description: as §1, with “improves” for “provides improved”, “vivo in long-term period,” for “vivo,”, “examined up to day 28” for “examined”, “LVT-murinCLDN18.2).” for “LUT-murinCLDN18.2).”
as §2
Lentivirally transduced mouse CLDN18.2 expressing tumor cells (CLS-103 LVT-murinCLDN18.2) were engrafted subcutaneously into the right flank of female Crl:NMRI(Han) mice (11-week-old) at 2×10^6 cells/mouse. Mice were randomized based on tumor volume measured 2 days after engraftment into 4 groups (n=12 per group). […] Tumors were measured twice per week. […] Tumor volume was determined by length×width×width×0.5. Mean tumor volume was calculated up to day 21 since 1 of 12 mice in the Rituximab/isotype treated group, as well as in the anti-mPD-1 antibody single agent group, was sacrificed due to tumor size being over 2000 mm^3. […] Complete regression (CR) was determined up to day 28 as the tumor volume of individual regressed to zero. […]

[3] = test system: CLS-103 LVT-murinCLDN18.2 syngeneic tumors; experiment: Efficacy of IMAB362 plus anti-mPD-L1 antibody in subcutaneous syngeneic gastric carcinoma model, endpoint day 14 (Example 4); conditions: n=12 per group, IMAB362 800 μg/mouse, anti-mPD-L1 antibody 300 μg/mouse, intraperitoneal twice per week, vs Rituximab/isotype control group
Description: as §1, with “improves” for “provides improved”, “anti-mPD-L1” for “anti-mPD-1”, “LVT-murinCLDN18.2).” for “LUT-murinCLDN18.2).”
as §2
as §3, with “(11-week-old)” for “(10-week-old)”, “(TGI [%]) or tumor regression rate (TRR [%])” for “(TGI[%])”, “equations” for “equation”

[4] = test system: CLS-103 LVT-murinCLDN18.2 syngeneic tumors; experiment: Efficacy of IMAB362 plus anti-mCTLA-4 antibody in subcutaneous syngeneic gastric carcinoma model, endpoint day 14 (Example 3); conditions: n=12 per group, IMAB362 800 μg/mouse, anti-mCTLA-4 antibody 300 μg/mouse, intraperitoneal twice per week, vs Rituximab/isotype control group
Description: as §1, with “improves” for “provides improved”, “anti-mCTLA-4” for “anti-mPD-1”, “LVT-murinCLDN18.2).” for “LUT-murinCLDN18.2).”
as §2
as §3, with “(11-week-old)” for “(10-week-old)”, “(TGI [%]) or tumor regression rate (TRR [%])” for “(TGI[%])”, “equations” for “equation”

For “IMAB362: chimeric IgG1 antibody directed against CLDN18.2; heavy chain SEQ ID NO: 51, light chain SEQ ID NO: 24”, the “Tumor growth inhibition (TGI)” value [1] was 50%, the “Tumor growth inhibition (TGI)” value ([2]; day 21, n=12 per group, vs Rituximab/isotype control group) was 40% and the “number of mice with complete regression (CR) in the group of 12 mice” value ([2]; day 28, CR = tumor volume regressed to zero) was 2. For the same substance, the “Tumor growth inhibition (TGI)” value [3] was 60% and the “Tumor growth inhibition (TGI)” value [4] was 72%.
